From US8901314B2, “Substituted pyrazoles as N-type calcium channel blockers” (Janssen Pharmaceutica NV, priority 2012, dated 2014)

Legend:
[1] = test system: Cav2.2 (N-type calcium channel; α1B, α2δ and β3 subunits stably expressed in HEK293 cells); assay: Automated electrophysiology assay (QPatch-HT patch clamp); format: cell-based; settings: 0.1 μM; for QPatch % Inhibition, High Freq: high frequency stimulation (15th pulse of 5 Hz train); for QPatch % Inhibition, Low Freq: low frequency stimulation (1st pulse of train)
Method: The Cav2.2 (α1B) subunit (GenBank accession no. AAO53230; supplied by Lipscombe's laboratory at Brown University) was subcloned into pcDNA3.1, whereas the α2δ (M86621) and β3 (M88751) subunits were subcloned into pBudCE4.1 vectors. Stable cell lines expressing all three subunits were generated according to the following procedure: 1) HEK293 cells were transfected with α2δ−1/β3 expression constructs resulting in a stable cell line expressing α2δ−1 and β3 subunits that were selected under 200 μg/mL of Zeocin; 2) a stable cell line expressing α2δ−1/β3 subunits in high quantity as evidenced in its Western blots was isolated from the colony and purified; 3) this cell line was further transfected with Cav2.2 expression constructs, from which cells were subsequently selected under 400 μg/mL G418 and 200 μg/mL Zeocin; 4) these cells were clonally isolated, expanded and screened by Western blot analysis for expressing all three subunits
Cultures of cells stably expressing Cav2.2 were maintained at 37° C. in low glucose-containing Dulbecco's Modified Eagle medium (low glucose) under a 5% CO2 atmosphere. The medium was supplemented with 10% fetal bovine serum, 2 mM L-glutamine, 100 IU/mL penicillin, […] streptomycin, 400 μg/mL G418 and 200 μg/mL Zeocin.
High-throughput automated patch clamp system experiments were carried out using instruments (QPatch-HT) available from Sophion Biosciences, Inc. North Brunswick, N.J. Cells were grown in T175 flasks to 50%-90% confluence were enzymatically treated with Deatchin (Genlantis, San Diego, Calif., U.S.A.), centrifuged, rinsed and resuspended in 293 SFM II media (Life Technologies, Grand Island, N.Y., U.S.A.) supplemented with 25 mM HEPES (Sigma-Aldrich, St. Louis, Mo., U.S.A.) to a concentration of 2−3×10^6 cells/mL. Cells were added to automated cell preparation station on the QPatch-HT (Sophion Biosciences, North Brunswick, N.J., U.S.A.) and following a 10- to 30-min recovery period with gentle stirring, the assay protocol was initiated. During the automated cell preparation, cells were collected, centrifuged and resuspended in an extracellular (EC) solution containing 132 mM NaCl, 1.8 mM CaCl2, 5.4 mM KCl, 0.8 mM MgCl2, 10 mM glucose, and 10 mM HEPES (pH=7.4), adjusted with sucrose to 315 m0sm. The QPlate was primed with an intracellular solution containing 135 CsCl, 10 mM EGTA, 4 MgATP, 0.3 NaGTP, and 20 mM HEPES (pH=7.2), adjusted to approximately 290 m0sm with deionized water and the EC solution. Cells were added to the prepared QPlate wells by robotic pipettes of the QPatch-HT.
For cells determined to be in stable whole-cell patch clamp, the EC solution was replaced with a barium (Ba)/triethylammonium (TEA) solution containing 140 mM TEA-Cl, 10 mM BaCl2, 0.8 mM MgCl2, 10 mM glucose, and 10 mM HEPES (pH=7.4). High (40 mM) BaCl2 concentrations were made with adjustments of TEA-Cl (90 mM) to maintain the osmolarity. From a resting potential of −80 mV, a train of depolarizing pulses (15 pulses at 5 Hz, +20 mV) was delivered to the cell once every 30 sec for eight trains (4 min total), and the resulting currents were measured during a control period (no compound). This protocol was repeated for each subsequent addition of control buffer with or without compound (three periods total, each with four trains). The current generated in the 1st and 15th pulses of the last train of each period in the presence of each drug concentration was normalized to the current generated during the control period at the respective pulses (representing low- and high frequency stimulation, respectively). Data from both the second and third drug application period were analyzed for each cell. A final addition of Ba/TEA solution containing 60-100 uM CdCl2 was made to block all N-type current and “zero” the currents for each cell. A buffer/compound additions were made using a “spitting” feature of the QPatch-HT, which added three repretitions of 5 μL solution at the beginning of each recording period.

[2] = target: α1B (Cav2.2), β3 and α2δ subunits of the N-type calcium channel (stable HEK cell line) (Rattus norvegicus, UniProt Q02294); assay: Calcium-dye indicator assay (FDSS, KCl depolarization); format: cell-based; settings: calcium mobilization response to 50 mM KCl; six-point concentration-response
Method: A stable cell line (HEK parent) co-expressing the α1B (Cav2.2), β3 and α2δ subunits of the N-type calcium channel subunits was used. These cells were routinely grown as monolayers in low glucose-containing Dulbecco's Modified Eagle Medium supplemented with 10% FBS, 2 mM L-glutamine, 100 I.U./mL penicillin, 100 μg/mL streptomycin, 400 μg/mL G418 and 200 μg/mL Zeocin (split ratio=1:5). Cells were maintained in 5% CO2 at 37° C. Compounds of Formula (I) were prepared as 10 mM stocks in DMSO from neat compound, if available. Otherwise, the 5 or 10 mM DMSO stock solutions provided in-house were used.
Calcium mobilization responses to KCl depolarization were evaluated by measuring the intensity of calcium-mediated fluorescent signal in the presence of BD Calcium Assay Dye (BD Biosciences, Franklin Lakes, N.J., U.S.A.), utilizing a Functional Drug Screening System (FDSS) by Hamamatsu Corporation (Bridgewater, N.J., U.S.A.).
Twenty-four hours prior to assay, cells were seeded in clear-base poly-D-lysine coated 384-well plates (BD Biosciences) at a density of 5,000 cells per well in culture medium and grown overnight in 5% CO2 at 37° C. On the day of assay growth media were removed and cells were loaded with BD calcium assay dye (BD Biosciences) for 35 min at 37° C. under 5% CO2 and then for 25 min at room temperature. Utilizing the FDSS, cells were exposed to representative compounds of Formula (I) at varying concentrations and intracellular calcium was measured for 5 min prior to the addition of 50 mM KCl for an additional 3 min of measurement.
Maximal fluorescence intensity (FI) achieved upon addition of 50 mM KCl was exported from the FDSS software and further analyzed using GraphPad Prism 4 (Graph Pad Software Inc., CA, U.S.A.). Data were normalized to the maximum average counts from quadruplicate wells for each condition in the presence of 50 mM KCl and to the minimum average counts in the presence of buffer. Theoretical curves were generated using nonlinear regression curve-fitting analysis of either sigmoidal concentration-response or sigmoidal concentration-response (variable slope), and the IC50 values with the best-fit dose curve determined by GraphPad Prism were reported.

SMILES | QPatch % Inhibition, High Freq [1] | QPatch % Inhibition, Low Freq [1] | IC50 [2]
COc1ccccc1-n1nc(C2C[C@@H](C)O[C@H](C)C2)cc1-c1ccccc1 (relative stereo) [Compound 67, 3-[(trans)-2,6-Dimethyltetrahydro-2H-pyran-4-yl]-1-(2-methoxyphenyl)-5-phenyl-1H-pyrazole] | 65% | 55% | 12 nM
CCN(CC)c1ccccc1-n1nc(C2CC(C)(C)OC(C)(C)C2)cc1-c1ccc(Cl)cc1 [Compound 73, 2-[5-(4-Chlorophenyl)-3-(2,2,6,6-tetramethyltetrahydro-2H-pyran-4-yl)-1H-pyrazol-1-yl]-N,N-diethylaniline] | 1% | −18% | 50 nM
COc1ccccc1-n1nc(C2CC(C)(C)OC(C)(C)C2)cc1-c1ccc(N(C)C)nc1 [Compound 31, 5-[1-(2-Methoxyphenyl)-3-(2,2,6,6-tetramethyltetrahydro-2H-pyran-4-yl)-1H-pyrazol-5-yl]-N,N-dimethylpyridin-2-amine] | 1% | 4% | 3.5 nM
COc1ccccc1-n1nc(C2CC(C)(C)OC(C)(C)C2)cc1-c1cccnc1 [Compound 45, 3-[1-(2-Methoxyphenyl)-3-(2,2,6,6-tetramethyltetrahydro-2H-pyran-4-yl)-1H-pyrazol-5-yl]-pyridine] |  |  | 71 nM
COc1ccccc1-n1nc(C2CC(C)(C)OC(C)(C)C2)cc1-c1ccc(OCCn2ccnc2)cc1 [Compound 81, 5-{4-[2-(1H-Imidazol-1-yl)ethoxy]phenyl}-1-(2-methoxyphenyl)-3-(2,2,6,6-tetramethyltetrahydro-2H-pyran-4-yl)-1H-pyrazole] |  |  | 400 nM
COc1ccccc1-n1nc(C2CC(C)(C)OC(C)(C)C2)cc1-c1ccc2c(ccn2C)c1 [Compound 21, 5-[1-(2-Methoxyphenyl)-3-(2,2,6,6-tetramethyltetrahydro-2H-pyran-4-yl)-1H-pyrazol-5-yl]-1-methyl-1H-indole] |  |  | 5.7 nM
COc1ccccc1-n1nc(C2CC(C)(C)OC(C)(C)C2)cc1-c1ccnc(C)c1 [Compound 33, 4-[1-(2-Methoxyphenyl)-3-(2,2,6,6-tetramethyltetrahydro-2H-pyran-4-yl)-1H-pyrazol-5-yl]-2-methylpyridine] |  |  | 82 nM
COc1ccccc1-n1nc(C2CC(C)(C)OC(C)(C)C2)cc1-c1ncc(C)s1 [Compound 38, 2-[1-(2-Methoxyphenyl)-3-(2,2,6,6-tetramethyltetrahydro-2H-pyran-4-yl)-1H-pyrazol-5-yl]-5-methyl-1,3-thiazole] |  |  | 110 nM
Clc1ccc(-c2cc(C3CCOCC3)nn2-c2c(Cl)cccc2Cl)cc1 [Compound 80, 5-(4-Chlorophenyl)-1-(2,6-dichlorophenyl)-3-(tetrahydro-2H-pyran-4-yl)-1H-pyrazole] |  |  | 200 nM
COc1ccccc1-n1nc(C2CC(C)(C)OC(C)(C)C2)cc1-c1ccccc1NC(C)=O [Compound 36, N-{2-[1-(2-Methoxyphenyl)-3-(2,2,6,6-tetramethyltetrahydro-2H-pyran-4-yl)-1H-pyrazol-5-yl]-phenyl}-acetamide] |  |  | 143 nM
COc1ccccc1-n1nc(C2CC(C)(C)OC(C)(C)C2)cc1-c1ccc(N(C)C)cc1 [Compound 11, 4-[1-(2-Methoxyphenyl)-3-(2,2,6,6-tetramethyltetrahydro-2H-pyran-4-yl)-1H-pyrazol-5-yl]-N,N-dimethylaniline] |  |  | 2.4 nM
CCc1ccccc1-n1nc(C2CCOCC2)cc1-c1ccc(Cl)cc1 [Compound 77, 5-(4-Chlorophenyl)-1-(2-ethylphenyl)-3-(tetrahydro-2H-pyran-4-yl)-1H-pyrazole] |  |  | 150 nM
CC(C)Oc1ccccc1-n1nc(C2CC(C)(C)OC(C)(C)C2)cc1-c1ccc(Cl)cc1 [Compound 7, 5-(4-Chlorophenyl)-1-[2-(1-methylethoxy)phenyl]-3-(2,2,6,6-tetramethyltetrahydro-2H-pyran-4-yl)-1H-pyrazole] |  |  | 1.2 nM
CCN(CC)C(=O)c1ccc(-c2cc(C3CC(C)(C)OC(C)(C)C3)nn2-c2ccccc2OC)cc1 [Compound 40, N,N-Diethyl-4-[1-(2-methoxyphenyl)-3-(2,2,6,6-tetramethyltetrahydro-2H-pyran-4-yl)-1H-pyrazol-5-yl]-benzamide] |  |  | 270 nM
CC1(C)CC(c2cc(-c3ccc(Cl)cc3)n(-c3ccccc3N3CCCC3)n2)CC(C)(C)O1 [Compound 76, 5-(4-Chlorophenyl)-1-(2-pyrrolidin-1-ylphenyl)-3-(2,2,6,6-tetramethyltetrahydro-2H-pyran-4-yl)-1H-pyrazole] |  |  | 100 nM
CC(C)(C)Oc1ccccc1-n1nc(C2CC(C)(C)OC(C)(C)C2)cc1-c1ccc(Cl)cc1 [Compound 48, 1-(2-tert-Butoxyphenyl)-5-(4-chlorophenyl)-3-(2,2,6,6-tetramethyltetrahydro-2H-pyran-4-yl)-1H-pyrazole] |  |  | 110 nM
COc1ccccc1-n1nc([C@@H]2CCO[C@@H](C(C)C)C2)cc1-c1ccc(Cl)cc1 (relative stereo) [Compound 69, 5-(4-Chlorophenyl)-1-(2-methoxyphenyl)-3-[(trans)-2-(1-methylethyl)tetrahydro-2H-pyran-4-yl]-1H-pyrazole] |  |  | 20 nM
COc1ccccc1-n1nc(C2CC(C)(C)OC(C)(C)C2)cc1C1=CCCC1 [Compound 37, 5-Cyclopent-1-en-1-yl-1-(2-methoxyphenyl)-3-(2,2,6,6-tetramethyltetrahydro-2H-pyran-4-yl)-1H-pyrazole] |  |  | 34 nM
COc1ccccc1-n1nc(C2CC(C)(C)OC(C)(C)C2)cc1-c1cc2ccccc2o1 [Compound 41, 5-(1-Benzofuran-2-yl)-1-(2-methoxyphenyl)-3-(2,2,6,6-tetramethyltetrahydro-2H-pyran-4-yl)-1H-pyrazole] |  |  | 65 nM
